Broadly, the IC50 is the concentration at which inhibition is half-maximal.

Where only a bound is given, the exact number is not on record here.

Chain of Factor D (P00746 26-253): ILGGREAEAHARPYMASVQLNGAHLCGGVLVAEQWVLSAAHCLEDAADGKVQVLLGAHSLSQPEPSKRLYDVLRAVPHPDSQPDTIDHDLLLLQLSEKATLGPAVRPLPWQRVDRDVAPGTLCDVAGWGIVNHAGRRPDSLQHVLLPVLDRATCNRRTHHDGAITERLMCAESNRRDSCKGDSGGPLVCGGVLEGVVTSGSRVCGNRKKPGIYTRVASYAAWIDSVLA

The assay addresses Factor D (Homo sapiens (Human), UniProt P00746). Description: Factor D esterolytic assay. It counts as biochemical. The following applies: Z-Lys-SBzl substrate, 100 mM HEPES, 500 mM NaCl, pH 7.5, 10% DMSO; tested a minimum of three times; read-out: Measured Ki (IC50) Value for Compounds: IC50. The gist of the method: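 Buffer was 100 mM HEPES, 500 mM NaCl, pH 7.5 with 10% DMSO. Compound and Factor D were combined, then Z-Lys-SBzl (1.29 mM) was added either at once or following room-temperature incubation. Rates came from DTNB colour at 405 nm minus 690 nm over 600 s, with percent inhibition giving IC50 over at least three tests.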
For the compound `NCc1cccc(-c2ccc3ncc(COc4ccccc4CC(=O)O)n3c2)c1` [Compound 65e, 2-(2-((6-(3-(aminomethyl)phenyl)imidazo[1,2-a]pyridin-3-yl)methoxy)phenyl)acetic acid], the IC50 is less than 1 µM.
Turning to `NCc1cccc(-c2ccc3sc(C(=O)O)c(COc4ccccc4CC(=O)O)c3c2)c1` [Compound 56d, 5-(3-(aminomethyl)phenyl)-3-((2-(carboxymethyl)phenoxy)methyl)benzo[b]thiophene-2-carboxylic acid], the IC50 is less than 1 µM.
To `NCc1cccc(-c2cc(C(F)F)c3occ(COc4ccccc4CC(=O)O)c3c2)c1` [Compound 262e, 2-(2-((5-(3-(aminomethyl)phenyl)-7-(difluoromethyl)benzofuran-3-yl)methoxy)phenyl)acetic acid] belongs less than 1 µM; to `CCc1ccc(CC(=O)O)c(OCc2c(C)oc3ccc(-c4cccc(CN)c4)cc23)c1` [Compound 202c, 2-(2-((5-(3-(aminomethyl)phenyl)-2-methylbenzofuran-3-yl)methoxy)-4-ethylphenyl)acetic acid], less than 1 µM; to `NCc1cccc(-c2ccc3occ(C(=O)Nc4ccccc4CC(=O)O)c3c2)c1` [Compound 10c, 2-(2-(5-(3-(aminomethyl)phenyl)benzofuran-3-carboxamido)phenyl)acetic acid], less than 1 µM.
With `CC(C)(C)OC(=O)Nc1cccc(CC(=O)O)c1OCc1coc2ccc(-c3cccc(CN)c3)cc12` [Compound 91a, 2-(2-((5-(3-(aminomethyl)phenyl)benzofuran-3-yl)methoxy)-3-((tert-butoxycarbonyl)amino)phenyl)acetic acid], the IC50 is less than 1 µM.
`NCc1cccc(-c2ccc3occ(Cc4cccc(CC(=O)O)c4O)c3c2)c1F` [Compound 42c, 2-(3-((5-(3-(aminomethyl)-2-fluorophenyl)benzofuran-3-yl)methyl)-2-hydroxyphenyl)acetic acid]: the IC50 is less than 1 µM.
To `COc1ccc(CC(=O)O)c(OCc2c3cc(-c4cccc(CN)c4)ccc3nn2C)c1` [Compound 210c, 2-(2-((5-(3-(aminomethyl)phenyl)-2-methyl-2H-indazol-3-yl)methoxy)-4-methoxyphenyl)acetic acid] belongs less than 1 µM; to `Cc1nn(C)c(C)c1-c1cc(-c2cccc(CN)c2)cc2c(COc3ccccc3CC(=O)O)coc12` [Compound 268c, 2-(2-((5-(3-(aminomethyl)phenyl)-7-(1,3,5-trimethyl-1H-pyrazol-4-yl)benzofuran-3-yl)methoxy)phenyl)acetic acid], less than 1 µM; to `NCc1cc(-c2cc(COc3ccccc3CC(=O)O)cc3cc(COc4ccccc4CC(=O)O)oc23)ccn1` [Compound 27e, 2,2′-((((7-(2-(aminomethyl)pyridin-4-yl)benzofuran-2,5-diyl)bis(methylene))bis(oxy))bis(2,1-phenylene))diacetic acid], less than 1 µM.
As to `CC(C)(C)OC(=O)Nc1ccc(CC(=O)O)c(OCc2coc3ccc(-c4cccc(CN)c4)cc23)c1` [Compound 83h, 2-(2-((5-(3-(aminomethyl)phenyl)benzofuran-3-yl)methoxy)-4-((tert-butoxycarbonyl)amino)phenyl)acetic acid], the IC50 is less than 1 µM.
Take `NCc1cc(F)cc(-c2ccc3occ(COc4ccccc4CC(=O)O)c3c2)c1` [Compound 40c, 2-(2-((5-(3-(aminomethyl)-5-fluorophenyl)benzofuran-3-yl)methoxy)phenyl)acetic acid]: the IC50 is less than 1 µM.
`NCc1cccc(-c2cc(N)c3oc(C(=O)O)c(COc4ccccc4CC(=O)O)c3c2)c1` [Compound 87c, 7-amino-5-(3-(aminomethyl)phenyl)-3-((2-(carboxymethyl)phenoxy)methyl)benzofuran-2-carboxylic acid]: the IC50 is less than 1 µM.
Turning to `NCc1cccc(-c2ccc3[nH]nc(COc4ccccc4CC(=O)O)c3c2)c1` [Compound 81a, 2-(2-((5-(3-(aminomethyl)phenyl)-1H-indazol-3-yl)methoxy)phenyl)acetic acid], the IC50 is less than 1 µM.
In the case of `NCc1cccc(-c2ccc3occ(COc4c(CC(=O)O)cccc4C(=O)O)c3c2)c1` [Compound 301d, 2-((5-(3-(aminomethyl)phenyl)benzofuran-3-yl)methoxy)-3-(carboxymethyl)benzoic acid], the IC50 was less than 1 µM.
To `NCc1cccc(-c2ccc3oc(C(F)F)c(COc4ccccc4CC(=O)O)c3c2)c1` [Compound 139c, 2-(2-((5-(3-(aminomethyl)phenyl)-2-(difluoromethyl)benzofuran-3-yl)methoxy)phenyl)acetic acid] belongs less than 1 µM.
To `CC(C)(C)OC(=O)n1cc(Cc2cccc(CC(=O)O)c2O)c2cc(-c3cccc(CN)c3)ccc21` [Compound 75e, 2-(3-((5-(3-(aminomethyl)phenyl)-1-(tert-butoxycarbonyl)-1H-indol-3-yl)methyl)-2-hydroxyphenyl)acetic acid] belongs greater than 10 µM; to `NCc1cccc(-c2cccc3cc(COc4ccccc4CC(=O)O)oc23)c1` [Compound 19e, 2-(2-((7-(3-(aminomethyl)phenyl)benzofuran-2-yl)methoxy)phenyl)acetic acid], less than 1 µM.
Regarding `CC(C)n1nc(COc2ccccc2CC(=O)O)c2cc(-c3ccnc(CN)c3F)ccc21` [Compound 271c, 2-(2-((5-(2-(aminomethyl)-3-fluoropyridin-4-yl)-1-isopropyl-1H-indazol-3-yl)methoxy)phenyl)acetic acid], the IC50 was less than 1 µM.
`NCc1cccc(-c2ccc3occ(COc4cccc(CC(=O)O)c4)c3c2)c1` [Compound 4d, 2-(3-((5-(3-(aminomethyl)phenyl)benzofuran-3-yl)methoxy)phenyl)acetic acid]: the IC50 fell in the range of 1 to 10 µM.
Take `NCc1cccc(-c2cc(CN3CCNCC3)c3occ(COc4ccccc4CC(=O)O)c3c2)c1` [Compound 122b, 2-(2-((5-(3-(aminomethyl)phenyl)-7-(piperazin-1-ylmethyl)benzofuran-3-yl)methoxy)phenyl)acetic acid]: the IC50 was less than 1 µM.
To `CN(Cc1cc(-c2cccc(CN)c2)cc2c(COc3ccccc3CC(=O)O)coc12)C1CC1` [Compound 261e, 2-(2-((5-(3-(aminomethyl)phenyl)-7-((cyclopropyl(methyl)amino)methyl)benzofuran-3-yl)methoxy)phenyl)acetic acid] belongs less than 1 µM; to `N#Cc1cccc(CC(=O)O)c1OCc1coc2ccc(-c3cccc(CN)c3)cc12` [Compound 115c, 2-(2-((5-(3-(aminomethyl)phenyl)benzofuran-3-yl)methoxy)-3-cyanophenyl)acetic acid], less than 1 µM.
`NCc1cccc(-c2ccc3oc(C(=O)NC4CC4)c(COc4ccccc4CC(=O)O)c3c2)c1` [Compound 64h, 2-(2-((5-(3-(aminomethyl)phenyl)-2-(cyclopropylcarbamoyl)benzofuran-3-yl)methoxy)phenyl)acetic acid]: the IC50 is less than 1 µM.
As for `CN(C)Cc1cc(-c2cccc(CN)c2)cc2c(COc3ccccc3CC(=O)O)coc12` [Compound 82e, 2-(2-((5-(3-(aminomethyl)phenyl)-7-((dimethylamino)methyl)benzofuran-3-yl)methoxy)phenyl)acetic acid], the IC50 is less than 1 µM.
For `NCc1cccc(-c2cc(-c3cccnc3)c3occ(COc4ccccc4CC(=O)O)c3c2)c1` [Compound 162c, 2-(2-((5-(3-(aminomethyl)phenyl)-7-(pyridin-3-yl)benzofuran-3-yl)methoxy)phenyl)acetic acid], the IC50 is less than 1 µM.

For the origin of these results see patent US20250186391A1, “ORAL COMPLEMENT FACTOR D INHIBITORS” (BioCryst Pharmaceuticals, Inc., priority 2019, published 2025).
